Experimental data taken from patent US12415939B2, “Nano-adhesive and surface primer compound and use thereof” (The Regents of the University of California, priority 2015, dated 2025).

How the values were obtained:
Type in all cases: physicochemical
[1] = AFM force between Z-Cat-Ben SAM on silica and a silica bead; details: SAM on silica from 5 mM
Text: The pristine self-assemble of the Z-Cat-Ben molecules on silica surface exposed the aromatic residues to the air-water interface resulting in a low interfacial energy between a silica bead and the SAM surface as measured with the AFM technique (Wad˜0.07 mJ/m^2, see FIG. 47). This is unlike the strong adhesion of SAMs exposing catechol residues to the air water interface that bind to silica surface through hydrogen bonding interactions (Wad˜7.7 mJ/m^2).

[2] = QCM-D adsorption of zwitterionic molecules; details: silica
Text: Quartz Crystal Microbalance (QCM): Adsorption of the molecules on different surfaces such as silica, SiO2, (FIGS. 7A-7E) and titania, TiO2, (FIGS. 8A-8E) was also explored by the quartz crystal microbalance (QCM) and confocal fluorescence microscopy after rhodamine staining (FIG. 27A-27B). Quartz crystal microbalance with dissipation (QCM-D): A “static cell” (often called “Open Model”) QCM-D (Q-Sense, Biolin Scientific) was employed to qualitatively show the adsorption of the zwitterionic molecules onto mineral and metal oxide surfaces. 50 μl of 5 mM zwitterionic solution was deposited onto TiO2 and SiO2 surface, respectively, in DI H2O (100 μl) using a static cell via two-step adsorption. […] However, a quantitative discussion regarding the adsorbed mass (frequency shift) and the viscoelastic properties (dissipation) of the adsorbed “soft” layers is challenging because the mass of the zwitterionic molecules cannot be separated from the mass of adsorbed water. […]
Quartz crystal microbalance with dissipation (QCM-D) is an extension to the QCM technique developed by Q-Sense® and can be used to determine the rigidity/softness and the viscoelastic properties of the adsorbed material. The QCM quartz crystal was coated with different rigid materials (e.g., metals, polymers, dielectrics) and the adsorption kinetics can be monitored on these materials in liquid environment. […]

[3] = AFM adhesion force runs with silica probe on Z-Cat-C10 coated copper plate; details: CuO2/Cu(OH)2 and SiO2 surfaces
Procedure: AFM force runs were measured with and without Z-Cat-C10 on silicon wafer and copper plate, respectively, vs. silicon dioxide probe. Underwater force run was conducted for the surface prepared subsequently after spreading the 5 mM Z-Cat-C10, waiting for 2 min, rinsing thoroughly with degassed DI water thoroughly for 3 times. Dry force run was performed after ˜5 min dry of the surface prepared as for the underwater force run. […] Cantilever spring constant (K) for #=10 μm silica tip on silicon wafer and copper plate with Z-Cat-C10, was 0.1 N m^−1.
The measured adhesion, Fa, force (minimum of the potential well of the F vs. D curves obtained from AFM measurements) is related to the adhesion energy per unit area by Wa=Fa/2πR for rigid surfaces with weak adhesive interactions, and by Wa=Fa/1.5πR (used in this study) for soft deformable surfaces with strong adhesion or cohesion. […]
The adhesion/cohesion energy of the synthetic zwitterionic molecules was investigated in SFA (SurForce LLC, Santa Barbara, CA). […] The adhesion forces between Z-Cat-C10 molecules on various surfaces, e.g., silica and copper, were also measured by AFM (MFP-3D, Asylum research, Goleta, CA) in DI water and ambient conditions, respectively, at room temperature. […] Cantilever spring constants were measured for each force run. […]

adsorbed mass ([2]; 5 mM, zero applied pressure) [ng/cm^2]	adsorbed layer thickness ([2]; Voigt model) [nm]	Structure (SMILES)	interfacial energy Wad between silica bead and SAM [1] [mJ/m^2]	adhesion Wad after air-drying ([3]; air-dried ~5 min) [mJ m^−2]	wet work of adhesion Wad ([3]; underwater) [mJ m^−2]
85	1	C[N+](C)(CCCc1ccccc1)CCOP(=O)([O-])OCCCc1ccc(O)c(O)c1 [Z-Cat-Ben]	~0.07		
		CN(C)CCOP(=O)(O)OCCCc1ccc(O)c(O)c1 [Z-Cat-C10]		~4	~0.1
